Source: US9938260B2, “Soluble guanylate cyclase activators and their use” (GlaxoSmithKline Intellectual Property Development Limited, priority 2014, dated 2018)
Structures can show the parent of a compound that is named as a salt.

Molecular target: T1, soluble guanylate cyclase (sGC) (Rattus norvegicus, UniProt P20595)
T1 construct: endogenous in cells; host or cells: primary rat aortic smooth muscle cells
T1 sequence (P20595 1-619): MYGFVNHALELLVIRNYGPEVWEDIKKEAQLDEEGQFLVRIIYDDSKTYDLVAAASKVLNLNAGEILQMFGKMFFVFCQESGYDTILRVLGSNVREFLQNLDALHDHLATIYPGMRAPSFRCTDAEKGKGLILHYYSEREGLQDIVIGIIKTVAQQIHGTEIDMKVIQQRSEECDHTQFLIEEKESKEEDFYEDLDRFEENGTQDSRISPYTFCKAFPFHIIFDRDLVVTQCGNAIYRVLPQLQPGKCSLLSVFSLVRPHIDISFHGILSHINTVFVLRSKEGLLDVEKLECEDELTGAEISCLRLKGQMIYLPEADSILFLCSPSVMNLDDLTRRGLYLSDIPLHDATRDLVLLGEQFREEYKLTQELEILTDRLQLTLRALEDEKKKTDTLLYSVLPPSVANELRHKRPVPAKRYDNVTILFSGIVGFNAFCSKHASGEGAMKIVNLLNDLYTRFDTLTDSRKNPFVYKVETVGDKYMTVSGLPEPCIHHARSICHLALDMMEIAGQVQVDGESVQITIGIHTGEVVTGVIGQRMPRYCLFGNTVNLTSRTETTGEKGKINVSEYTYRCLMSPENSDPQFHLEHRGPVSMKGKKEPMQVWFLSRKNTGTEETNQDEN
T1 sequence (P19686 1-690 partner): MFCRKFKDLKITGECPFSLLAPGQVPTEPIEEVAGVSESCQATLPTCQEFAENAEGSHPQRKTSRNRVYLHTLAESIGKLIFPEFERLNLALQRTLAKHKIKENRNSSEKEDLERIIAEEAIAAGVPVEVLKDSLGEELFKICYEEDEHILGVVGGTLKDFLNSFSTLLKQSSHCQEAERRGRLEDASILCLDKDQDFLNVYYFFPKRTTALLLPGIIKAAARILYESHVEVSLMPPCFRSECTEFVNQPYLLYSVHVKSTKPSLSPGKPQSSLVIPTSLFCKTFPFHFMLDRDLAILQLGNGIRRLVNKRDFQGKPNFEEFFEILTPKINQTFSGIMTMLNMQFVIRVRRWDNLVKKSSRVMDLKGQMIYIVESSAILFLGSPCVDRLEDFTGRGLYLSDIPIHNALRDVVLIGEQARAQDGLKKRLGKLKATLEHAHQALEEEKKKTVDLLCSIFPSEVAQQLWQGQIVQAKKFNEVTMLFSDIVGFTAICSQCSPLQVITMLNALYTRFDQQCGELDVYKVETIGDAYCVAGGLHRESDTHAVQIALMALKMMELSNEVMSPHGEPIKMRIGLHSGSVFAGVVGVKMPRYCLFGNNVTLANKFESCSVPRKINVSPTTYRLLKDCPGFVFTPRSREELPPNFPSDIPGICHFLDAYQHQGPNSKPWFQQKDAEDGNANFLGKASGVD
Test: Biological cellular assay: sGC activity by phosphorylation of VASP in rat aortic smooth muscle cells
Assay type: cell-based
Conditions: primary rat aortic smooth muscle cells, pre-incubated with 10 μM ODQ, 30 min at 37° C., phospho-VASP (pSer239) fluorescent signal; read-out: Cell assay pEC50 (converted)
Description: The activity of soluble guanylate cyclase (sGC) was tested in an assay based on measuring phosphorylation of the protein kinase G (PKG) substrate vasodilator-stimulated phosphoprotein (VASP) in rat aortic smooth muscle cells. […] Dimethylsulfoxide (DMSO) vehicle and varying concentrations of the compound to be tested were then added. Following a 30 min incubation at 37° C., media was aspirated and the cells were rinsed with phosphate-buffered saline (PBS) and fixed with 4% formaldehyde in PBS by incubating at room temperature for 20 min. Cells were then washed with PBS and permeabilized for 10 min using 0.1% triton X-100 in PBS. Following PBS rinsing, the cells were blocked for 90 min at room temperature with blocking buffer. The buffer was aspirated and the cells were treated overnight at 4° C. with primary antibody (pSer239-VASP, rabbit polyclonal Ab) diluted 1:500 in blocking buffer. Following three washes with 0.05% Tween 20, the cells were treated for 1 h at room temperature with a fluorescent labeled secondary antibody (IRDye® 800CW Donkey Anti-Rabbit IgG) diluted 1:2500 in blocking buffer with 0.05% Tween 20. Following two washes with PBS, infrared fluorescence was measured using an Odyssey Infrared Imaging System. The activity of a test compound was determined as the pEC50 value which is the concentration able to increase by 50% (vs. Bmax) the phospho-VASP fluorescent signal. Front. Pharmacol., 5 Jul. 2012|doi: 10.3389/fphar.2012.00128, Volume 3 July, 2012, Article number 128.

**Q.** For `COCC(=O)N1CCC(c2ccc(COc3c(F)cc(F)cc3-c3cccc(N4CCC(C(=O)O)CC4)n3)c(C)c2)CC1` [Example 60, 1-(6-(3,5-difluoro-2-((4-(1-(2-methoxyacetyl)piperidin-4-yl)-2-methylbenzyl)oxy)phenyl)pyridin-2-yl)piperidine-4-carboxylic acid, Sodium salt], which EC50 is on record?
**A.** 0.126 nM

**Q.** With `Cc1cc(C2CCN(C(=O)CC#N)CC2)ccc1COc1c(F)cc(F)cc1-c1cccc(N2CCC(C(=O)O)CC2)n1` [Example 63, 1-(6-(2-((4-(1-(2-cyanoacetyl)piperidin-4-yl)-2-methylbenzyl)oxy)-3,5-difluorophenyl)pyridin-2-yl)piperidine-4-carboxylic acid, Sodium salt] as the compound, how does the EC50 read?
**A.** 0.398 nM

**Q.** Which EC50 does the source give for `Cc1cc(C2CCN(C(=O)CC3CC3)CC2)ccc1COc1c(F)cc(F)cc1-c1cccc(N2CCC(C(=O)O)CC2)n1` [Example 66, 1-(6-(2-((4-(1-(2-cyclopropylacetyl)piperidin-4-yl)-2-methylbenzyl)oxy)-3,5-difluorophenyl)pyridin-2-yl)piperidine-4-carboxylic acid, Sodium salt] here?
**A.** 0.316 nM

**Q.** Which EC50 does the source give for `Cc1cc(C2CCN(C(=O)C3CCOC3)CC2)ccc1COc1c(F)cc(F)cc1-c1cccc(N2CCC(C(=O)O)CC2)n1` (stereo not shown) [Example 69, 1-(6-(3,5-difluoro-2-((2-methyl-4-(1-(tetrahydrofuran-3-carbonyl)piperidin-4-yl)benzyl)oxy)phenyl)pyridin-2-yl)piperidine-4-carboxylic acid, Sodium salt] here?
**A.** 0.251 nM

**Q.** `Cc1cc(C2CCN(C(=O)[C@H]3CCOC3)CC2)ccc1COc1c(F)cc(F)cc1-c1cccc(N2CCC(C(=O)O)CC2)n1` [Example 72, (S)-1-(6-(3,5-difluoro-2-((2-methyl-4-(1-(tetrahydrofuran-3-carbonyl)piperidin-4-yl)benzyl)oxy)phenyl)pyridin-2-yl)piperidine-4-carboxylic acid, Sodium salt] was tested. Which EC50 did it give?
**A.** 0.427 nM

**Q.** `Cc1cc(C2CCN(C(=O)[C@@H]3CCOC3)CC2)ccc1COc1c(F)cc(F)cc1-c1cccc(N2CCC(C(=O)O)CC2)n1` [Example 73, (R)-1-(6-(3,5-difluoro-2-((2-methyl-4-(1-(tetrahydrofuran-3-carbonyl)piperidin-4-yl)benzyl)oxy)phenyl)pyridin-2-yl)piperidine-4-carboxylic acid, Sodium salt] was tested. Which EC50 did it give?
**A.** 0.0891 nM

**Q.** For `Cc1cc(C2CCN(C(=O)CC3COC3)CC2)ccc1COc1c(F)cc(F)cc1-c1cccc(N2CCC(C(=O)O)CC2)n1` [Example 76, 1-(6-(3,5-difluoro-2-((2-methyl-4-(1-(2-(oxetan-3-yl)acetyl)piperidin-4-yl)benzyl)oxy)phenyl)pyridin-2-yl)piperidine-4-carboxylic acid, Sodium salt], which EC50 is on record?
**A.** 1 nM

**Q.** For `Cc1cc(C2CCN(C(=O)CC3CCOC3)CC2)ccc1COc1c(F)cc(F)cc1-c1cccc(N2CCC(C(=O)O)CC2)n1` (stereo not shown) [Example 79, 1-(6-(3,5-difluoro-2-((2-methyl-4-(1-(2-(tetrahydrofuran-3-yl)acetyl)piperidin-4-yl)benzyl)oxy)phenyl)pyridin-2-yl)piperidine-4-carboxylic acid, Sodium salt], which EC50 is on record?
**A.** 1.26 nM

**Q.** For `Cc1cc(C2CCN(C(=O)CC(=O)O)CC2)ccc1COc1c(F)cc(F)cc1-c1cccc(N2CCC(C(=O)O)CC2)n1` [Example 81, 1-(6-(2-((4-(1-(2-carboxyacetyl)piperidin-4-yl)-2-methylbenzyl)oxy)-3,5-difluorophenyl)pyridin-2-yl)piperidine-4-carboxylic acid, di-Sodium salt], which EC50 is on record?
**A.** 15.8 nM

**Q.** For `Cc1cc(C2CCN(C(=O)Cn3cncn3)CC2)ccc1COc1c(F)cc(F)cc1-c1cccc(N2CCC(C(=O)O)CC2)n1` [Example 84, 1-(6-(2-((4-(1-(2-(1H-1,2,4-triazol-1-yl)acetyl)piperidin-4-yl)-2-methylbenzyl)oxy)-3,5-difluorophenyl)pyridin-2-yl)piperidine-4-carboxylic acid, Sodium salt], which EC50 is on record?
**A.** 20 nM

**Q.** With `COc1cc(C2CCN(CC(F)(F)F)CC2)ccc1COc1c(F)cc(F)cc1-c1cccc(N2CCC(C(=O)O)CC2)n1` [Example 87, 1-(6-(3,5-difluoro-2-((2-methoxy-4-(1-(2,2,2-trifluoroethyl)piperidin-4-yl)benzyl)oxy)phenyl)pyridin-2-yl)piperidine-4-carboxylic acid, Sodium salt] as the compound, how does the EC50 read?
**A.** 2.51 nM

**Q.** Which EC50 does the source give for `O=C(O)C1CCN(c2cccc(-c3cc(F)cc(F)c3OCc3ccc(C4CCN(CC(F)(F)F)CC4)cc3OC3COC3)n2)CC1` [Example 90, 1-(6-(3,5-difluoro-2-((2-(oxetan-3-yloxy)-4-(1-(2,2,2-trifluoroethyl)piperidin-4-yl)benzyl)oxy)phenyl)pyridin-2-yl)piperidine-4-carboxylic acid, Sodium salt] here?
**A.** 1.26 nM

**Q.** With `Cc1cc(OC2CCN(CC(F)(F)F)CC2)ccc1COc1c(F)cc(F)cc1-c1cccc(N2CCC(C(=O)O)CC2)n1` [Example 93, 1-(6-(3,5-difluoro-2-((2-methyl-4-((1-(2,2,2-trifluoroethyl)piperidin-4-yl)oxy)benzyl)oxy)phenyl)pyridin-2-yl)piperidine-4-carboxylic acid, Sodium salt] as the compound, how does the EC50 read?
**A.** 7.94 nM
